Data reported in US20240083853A1, “HSD17B13 INHIBITORS AND USES THEREOF” (FL2022-001, Inc., priority 2020, published 2024).
Where a name gives a salt, the structure may show the parent alone.

Target: T1, Recombinant human HSD17B13 enzyme (Homo sapiens, UniProt Q7Z5P4)
T1 sequence (Q7Z5P4 20-300): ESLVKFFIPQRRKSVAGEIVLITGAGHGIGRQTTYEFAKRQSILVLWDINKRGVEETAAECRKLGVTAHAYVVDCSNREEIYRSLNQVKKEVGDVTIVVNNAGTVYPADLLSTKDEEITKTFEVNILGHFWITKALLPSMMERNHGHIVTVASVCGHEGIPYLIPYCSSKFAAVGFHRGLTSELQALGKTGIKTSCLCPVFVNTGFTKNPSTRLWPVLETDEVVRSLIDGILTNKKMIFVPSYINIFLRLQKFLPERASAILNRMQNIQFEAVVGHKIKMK
Assay: HSD17b13 NAD(P)H-Glo biochemical assay
Conditions: 50 uM estradiol, 1 mM NAD+, NAD(P)H-Glo luminescence; read-out: HSD17β13 IC50
How it was run: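 Recombinant human HSD17B13 in 20 mM Tris pH7.4 with 0.002% Tween-20 and 0.02% BSA was preincubated with inhibitor for 20 minutes at RT. The reaction ran 3 hours at 37° C with 50 uM estradiol and 1 mM NAD+ (final). NADH formed was detected by NAD(P)H-Glo luminescence after 1 hour at RT.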

IC50 | Structure (SMILES)
100 to 1000 nM | Oc1cc2c(cnn2-c2ccc(-c3ccc(O)c(Cl)c3)cc2)cc1F [Compound 15, 1-(3′-Chloro-4′-hydroxy-[1,1′-biphenyl]-4-yl)-5-fluoro-1H-indazol-6-ol]
< 100 nM | Oc1cc2c(nnn2-c2ccc(N3CC4(CCOCC4)C3)cc2)c(Cl)c1F [Compound 40, 1-(4-(7-Oxa-2-azaspiro[3.5]nonan-2-yl)phenyl)-4-chloro-5-fluoro-1H-benzo[d][1,2,3]triazol-6-ol]
100 to 1000 nM | O=S1(=O)CCN(c2ccc(-n3ncc4cc(F)c(O)c(F)c43)cc2)CC1 [Compound 23.5, 4-(4-(5,7-Difluoro-6-hydroxy-1H-indazol-1-yl)phenyl)thiomorpholine 1,1-dioxide]
< 100 nM | CC1(C(F)(F)F)CCN(c2ccc(-n3ncc4cc(F)c(O)c(F)c43)cc2)CC1 [Compound 24.8, 5,7-Difluoro-1-(4-(4-methyl-4-(trifluoromethyl)piperidin-1-yl)phenyl)-1H-indazol-6-ol]
100 to 1000 nM | Oc1cc2c(cnn2-c2ccc(Nc3ccccc3)cc2)cc1F [Compound 3, 5-Fluoro-1-(4-(phenylamino)phenyl)-1H-indazol-6-ol]
< 100 nM | CCN1CCC(c2ccc(-n3ncc4cc(F)c(O)c(F)c43)cc2)CC1 [Compound 29, 1-(4-(1-Ethylpiperidin-4-yl)phenyl)-5,7-difluoro-1H-indazol-6-ol TFA salt]
< 100 nM | Oc1cccc(-c2ccc(-n3ncc4cc(F)c(O)c(F)c43)cc2)c1 [Compound 13.12, 5,7-Difluoro-1-(3′-hydroxy-[1,1′-biphenyl]-4-yl)-1H-indazol-6-ol]
< 100 nM | Cc1cc(-n2ncc3cc(F)c(O)c(F)c32)ccc1N1CCN(S(C)(=O)=O)CC1 [Compound 20.3, 5,7-Difluoro-1-(3-methyl-4-(4-(methylsulfonyl)piperazin-1-yl)phenyl)-1H-indazol-6-ol]
100 to 1000 nM | CC1(C)CCN(c2ccc(-n3nnc4c(C(F)(F)F)c(F)c(O)cc43)cc2)CC1 [Compound 41.1, 1-(4-(4,4-Dimethylpiperidin-1-yl)phenyl)-5-fluoro-4-(trifluoromethyl)-1H-benzo[d][1,2,3]triazol-6-ol]
< 100 nM | CC1(C)CN(c2ccc(-n3ncc4cc(F)c(O)c(F)c43)cc2)CCO1 [Compound 20.5, 1-(4-(2,2-Dimethylmorpholino)phenyl)-5,7-difluoro-1H-indazol-6-ol]
< 100 nM | CS(=O)(=O)N1CCC(c2ccc(-n3ncc4cc(F)c(O)c(F)c43)cc2)CC1 [Compound 27.7, 5,7-Difluoro-1-(4-(1-(methylsulfonyl)piperidin-4-yl)phenyl)-1H-indazol-6-ol]
< 100 nM | CS(=O)(=O)N1CCC(c2ccc(-n3nnc4cc(F)c(O)c(F)c43)cc2)CC1 [Compound 27.9, 5,7-Difluoro-1-(4-(1-(methylsulfonyl)piperidin-4-yl)phenyl)-1H-benzo[d][1,2,3]triazol-6-ol]
100 to 1000 nM | CS(=O)(=O)N1CC2(CN(c3ccc(-n4ncc5cc(F)c(O)c(F)c54)cc3)C2)C1 [Compound 20.23, 5,7-Difluoro-1-(4-(6-(methylsulfonyl)-2,6-diazaspiro[3.3]heptan-2-yl)phenyl)-1H-indazol-6-ol]
100 to 1000 nM | CC(C)N1CCN(c2ccc(-n3ncc4cc(F)c(O)c(F)c43)cc2)CC1 [Compound 24.2, 5,7-Difluoro-1-(4-(4-isopropylpiperazin-1-yl)phenyl)-1H-indazol-6-ol]
< 100 nM | Oc1c(F)cc2cnn(-c3ccc(N4CCC(F)(F)CC4)cc3)c2c1F [Compound 23.20, 1-(4-(4,4-Difluoropiperidin-1-yl)phenyl)-5,7-difluoro-1H-indazol-6-ol]
< 100 nM | N#Cc1ccc(-c2ccc(-n3ncc4cc(F)c(O)cc43)cc2)cc1 [Compound 13.18, 4′-(5-Fluoro-6-hydroxy-1H-indazol-1-yl)-[1,1′-biphenyl]-4-carbonitrile]
100 to 1000 nM | CN1CCN(c2ccc(-n3ncc4cc(F)c(O)c(F)c43)cc2)CC1 [Compound 24.1, 5,7-Difluoro-1-(4-(4-methylpiperazin-1-yl)phenyl)-1H-indazol-6-ol]
< 100 nM | Oc1c(F)cc2cnn(-c3ncc(-c4ccc(Cl)cc4)cn3)c2c1F [Compound 18.4, 1-(5-(4-Chlorophenyl)pyrimidin-2-yl)-5,7-difluoro-1H-indazol-6-ol]
< 100 nM | COC1(C)CN(c2ccc(-n3ncc4cc(F)c(O)c(F)c43)cc2)C1 [Compound 20.19, 5,7-Difluoro-1-(4-(3-methoxy-3-methylazetidin-1-yl)phenyl)-1H-indazol-6-ol]

IC50 | Structure (SMILES)
< 100 nM | CCC1(CC)CN(c2ccc(-n3ncc4cc(F)c(O)c(F)c43)cc2)C1 [Compound 24, 1-(4-(3,3-Diethylazetidin-1-yl)phenyl)-5,7-difluoro-1H-indazol-6-ol]
100 to 1000 nM | Oc1cc2c(cnn2-c2ccc(-c3ccccc3F)cc2)cc1F [Compound 13.3, 5-Fluoro-1-(2′-fluoro-[1,1′-biphenyl]-4-yl)-1H-indazol-6-ol]
< 100 nM | COCC1(C)CCN(c2ccc(-n3ncc4cc(F)c(O)c(F)c43)cc2)CC1 [Compound 20.18, 5,7-Difluoro-1-(4-(4-(methoxymethyl)-4-methylpiperidin-1-yl)phenyl)-1H-indazol-6-ol]
1000 to 30000 nM | CC1(C)CCN(c2ccc(-n3ncc4c(C(F)(F)F)c(F)c(O)nc43)cc2)CC1 [Compound 7.4, 1-(4-(4,4-Dimethylpiperidin-1-yl)phenyl)-5-fluoro-4-(trifluoromethyl)-1H-pyrazolo[3,4-b]pyridin-6-ol]
< 100 nM | CS(=O)(=O)N1CCN(c2ccc(-n3ncc4cc(F)c(O)c(F)c43)c(Cl)c2)CC1 [Compound 20.1, 1-(2-Chloro-4-(4-(methylsulfonyl)piperazin-1-yl)phenyl)-5,7-difluoro-1H-indazol-6-ol]
100 to 1000 nM | NC(=O)c1cccc(-c2ccc(-n3ncc4cc(F)c(O)cc43)cc2)c1 [Compound 13.35, 4′-(5-Fluoro-6-hydroxy-1H-indazol-1-yl)-[1,1′-biphenyl]-3-carboxamide]
1000 to 30000 nM | OCc1cccc(-c2ccc(-n3ncc4cc(F)c(O)cc43)cc2)c1 [Compound 13.22, 5-Fluoro-1-(3′-(hydroxymethyl)-[1,1′-biphenyl]-4-yl)-1H-indazol-6-ol]
100 to 1000 nM | CS(=O)(=O)NC1CCN(c2ccc(-n3ncc4cc(F)c(O)c(F)c43)cc2)CC1 [Compound 23.17, N-(1-(4-(5,7-Difluoro-6-hydroxy-1H-indazol-1-yl)phenyl)piperidin-4-yl)methanesulfonamide]
< 100 nM | CC1(C)CCN(c2ccc(-n3c(=O)oc4c(Br)c(F)c(O)c(F)c43)cc2)CC1 [Compound 38, 7-Bromo-3-(4-(4,4-dimethylpiperidin-1-yl)phenyl)-4,6-difluoro-5-hydroxybenzo[d]oxazol-2(3H)-one]
1000 to 30000 nM | Oc1cc(F)c2cnn(-c3ccc(-c4cccc(O)c4Br)cc3)c2c1 [Compound 2.9, 1-(2′-Bromo-3′-hydroxy-[1,1′-biphenyl]-4-yl)-4-fluoro-1H-indazol-6-ol]
100 to 1000 nM | CS(=O)(=O)N1CCN(c2ccc(-n3cnc4cc(F)c(O)c(F)c43)cc2)CC1 [Compound 21.4, 5,7-Difluoro-1-(4-(4-(methylsulfonyl)piperazin-1-yl)phenyl)-1H-benzo[d]imidazol-6-ol]
100 to 1000 nM | CS(=O)(=O)N1CCN(c2ccc(-n3ncc4cc(F)c(O)c(F)c43)cc2)CC1 [Compound 19, 5,7-Difluoro-1-(4-(4-(methylsulfonyl)piperazin-1-yl)phenyl)-1H-indazol-6-ol]
100 to 1000 nM | Oc1cccc(-c2ccc(-n3ncc4c(C(F)(F)F)c(F)c(O)cc43)cc2)c1 [Compound 4, 5-Fluoro-1-(3′-hydroxy-[1,1′-biphenyl]-4-yl)-4-(trifluoromethyl)-1H-indazol-6-ol]
< 100 nM | Oc1c(F)cc2cnn(-c3ccc(-c4ccncc4)cc3)c2c1F [Compound 14.4, 5,7-Difluoro-1-(4-(pyridin-4-yl)phenyl)-1H-indazol-6-ol]
< 100 nM | Oc1c(F)cc2cnn(-c3ccc(N4CCC5(CCC5)CC4)cc3)c2c1F [Compound 23.24, 1-(4-(7-Azaspiro[3.5]nonan-7-yl)phenyl)-5,7-difluoro-1H-indazol-6-ol]
100 to 1000 nM | CS(=O)(=O)N1CCN(c2cnc(-n3ncc4cc(F)c(O)c(F)c43)nc2)CC1 [Compound 26.9, 5,7-Difluoro-1-(5-(4-(methylsulfonyl)piperazin-1-yl)pyrimidin-2-yl)-1H-indazol-6-ol]
100 to 1000 nM | Oc1c(F)cc2cnn(-c3ccc(N4CCC5(CC4)CNC5)cc3)c2c1F [Compound 23.28, 1-(4-(2,7-Diazaspiro[3.5]nonan-7-yl)phenyl)-5,7-difluoro-1H-indazol-6-ol]
100 to 1000 nM | CS(=O)(=O)N1CCN(c2ccc(-n3nnc4cc(F)c(O)c(F)c43)nc2)CC1 [Compound 26.16, 5,7-Difluoro-1-(5-(4-(methylsulfonyl)piperazin-1-yl)pyridin-2-yl)-1H-benzo[d][1,2,3]triazol-6-ol]

Same assay, conditions: 3 h; at 10 uM compound; read-out: HSD17β13 % at 10 uM

inhibition at 10 µM | Structure (SMILES)
35% | CS(=O)(=O)N1CCN(c2ccc(-n3ncc4ccc(O)cc43)cc2)CC1 [Compound 26.5, 1-(4-(4-(Methylsulfonyl)piperazin-1-yl)phenyl)-1H-indazol-6-ol]
< 20% | CS(=O)(=O)N1CCN(c2ccc(-n3ncc4cnc(O)c(F)c43)cc2)CC1 [Compound 25.5, 7-Fluoro-1-(4-(4-(methylsulfonyl)piperazin-1-yl)phenyl)-1H-pyrazolo[4,3-c]pyridin-6-ol]
